# Assay results: paper PMC11181322, “Copper(II) Complexes with Isomeric Morpholine-Substituted 2-Formylpyridine Thiosemicarbazone Hybrids as Potential Anticancer Drugs Inhibiting Both Ribonucleotide Reductase and Tubulin Polymerization: The Morpholine Position Matters” (Journal of Medicinal Chemistry, 2024)
# Test system: MES-SA cells
# Assay: dNTP pools in MES-SA cell extracts
# Assay type: cell-based, human
# Conditions: at both concentrations (10 and 25 μM), 24 h
# Source text: RNR reduces NDPs to their corresponding deoxy derivatives (dNDPs), which are further converted into dNTPs.[77] Therefore, we investigated the effect of the most toxic proligand H2L^6 and its copper(II) complex 6 on cellular dNTP levels, using Triapine as a control. […] Triapine also elicits a dATP pool decrease while increasing the pools of the three other dNTP species. Decreasing the dATP pool to zero can give rise to the observed cytotoxic effect upon treatment with Triapine. Complex 6 seems to affect dNTP pools by a more complex mechanism, which is nevertheless consistent with R2 inhibition.[79]
# Figure 8 Measurement of dNTP pools in MES-SA cell extracts following a 24 h treatment with proligand H2L^6, complex 6, or Triapine at the indicated concentrations. Three independent experiments were performed; error bars represent standard error; stars indicate significant changes compared to the respective control (Ctrl) at p < 0.05.
# After a 24 h incubation with or without drugs, MES-SA cells were washed twice with PBS and trypsinized for 5 min. […] The pellet containing dNTPs was redissolved in 50 μL of RNase-free water and stored at −20 °C. dNTP-containing samples were measured by a nucleotide incorporation-based fluorescent method.[97] We used a long synthetic oligonucleotide (197 nt) as a template, which contains a dNTP-detection site, the sole complementary base to that of the dNTP to be quantified directly adjacent to the annealed primer. […] In addition to the limiting amount of dNTP to be quantified, the polymerization reaction mix contained the other three dNTPs in large excess. The double-stranded DNA product is detected by the EvaGreen Dye. The 2X master mix for the DNA synthesis reaction contained the following: 0.275 μM primer (Merck KGaA, Darmstadt, Germany), 0.25 μM template (IDT, Coralville, Iowa, USA), 50 μM dNTP mix (excluding the dNTP to be measured in the given experiment to limit its source to the sample), and 1.25 μM EvaGreen (Biotium). […] Fluorescence amplitude data were extracted from the Bio-Rad CFX Maestro Software and analyzed using Excel and Origin. […]
structure (smiles),measurement,value
"Cc1cc(NC(=NN=Cc2cccc(CN3CCOCC3)n2)[S][Cu][Cl])cc(C)c1O [complex 6, [Cu(HL^6)Cl]·H2O]",dATP and dTTP levels,marked decrease
